Patent publication US9388389B2, “JFH-1 based HCV cell culture systems for NS5A of genotypes 1-7” (Hvidovre Hospital, priority 2009, dated 2016)

Assays:
[1] = tested on: J6/JFH1 with JFH1 NS5A domain I exchanged to the J6 sequence; test: BMS-790052 treatment of infected cultures; assay type: cell-based, hepatitis C virus
Procedure: (§1) 5×10^3 naïve Huh7.5 cells were plated per well in a poly-D-lysine coated 96-well plate (Nunc, Roskilde, D K) one day before infection with different recombinant viruses. Infectious doses were chosen to aim at 400-1000 single infected cells in non-treated wells at the end of the experiment. J6/JFH1 was included with two infectious doses (high and low) to control for impact of dose variability. The infectious dose of other recombinants was in the range between. […] On day three cells were fixed and immunostained for NS3 expression as described above. In parallel, cell viability was monitored with CellTiter™ 96 AQueous One Solution Cell Proliferation Assay (Promega, Madison, Wis. USA). The number of single infected cells was determined by automated counting of individual wells as described above.
(§2) To improve HCV treatment, much attention has been drawn to development of specific small molecule HCV inhibitors, including inhibitors of NS5A. Using the NS5A genotype recombinants, we investigated sensitivity to the NS5A inhibitor most advanced in clinical trials, BMS-790052. Treatment experiments using the specific NS5A inhibitor BMS-790052 (synthesized by Acme Bioscience, Palo Alto, Calif., USA) were conducted similar to what was described for interferon-alpha.
(§3) The best described resistance mutation for this drug class, change of NS5A residue 93, induced >10-fold resistance to BMS-790052 for genotype 1 replicons. We changed this residue to histidine in the NS5A genotype 1-6 recombinants; QC69(7a) naturally had histidine. In BMS-790052 treatment experiments, H77C(1a)-Y93H, JFH1(2a)-Y93H and S52(3a)-Y93H were >1000-fold, J4(1b)-Y93H, J6(2a)-Y93H and ED43(4a)-Y93H˜100-fold, and SA13(5a)-T93H and HK6a(6a)-T93H<5-fold more resistant than the respective original recombinants (Table 21). […] The presence of L31M in the J6(2a) isolate and C92E in the S52(3a) isolate corresponded to the higher resistance of these isolates. Further, the lower sensitivity of J1(1a) compared to other 1a recombinants could be caused by the histidine found at NS5A residue 30, previously associated with resistance in patients.

H77C(1a)-Y93H = test: BMS-790052 treatment of infected cultures; assay type: cell-based, hepatitis C virus
Procedure: as §1, §2, §3

J6(2a)-Y93H = test: BMS-790052 treatment of infected cultures; assay type: cell-based, hepatitis C virus
Procedure: as §1, §2, §3

SA13(5a)-T93H = test: BMS-790052 treatment of infected cultures; assay type: cell-based, hepatitis C virus
Procedure: as §1, §2, §3

JFH1(2a)-Y93H = test: BMS-790052 treatment of infected cultures; assay type: cell-based, hepatitis C virus
Procedure: as §1, §2, §3

ED43(4a)-Y93H = test: BMS-790052 treatment of infected cultures; assay type: cell-based, hepatitis C virus
Procedure: as §1, §2, §3

[2] = tested on: J6/JFH1 with NS5A mutation L31M; test: BMS-790052 treatment of infected cultures; assay type: cell-based, hepatitis C virus
Procedure: as §1, §2, §3

S52(3a)-Y93H = test: BMS-790052 treatment of infected cultures; assay type: cell-based, hepatitis C virus
Procedure: as §1, §2, §3

J4(1b)-Y93H = test: BMS-790052 treatment of infected cultures; assay type: cell-based, hepatitis C virus
Procedure: as §1, §2, §3

HK6a(6a)-T93H = test: BMS-790052 treatment of infected cultures; assay type: cell-based, hepatitis C virus
Procedure: as §1, §2, §3

[3] = tested on: J6/JFH1 with NS5A mutation C92E; test: BMS-790052 treatment of infected cultures; assay type: cell-based, hepatitis C virus
Procedure: as §1, §2, §3

[4] = tested on: J6/JFH1 with NS5A mutation I37V; test: BMS-790052 treatment of infected cultures; assay type: cell-based, hepatitis C virus
[5] = tested on: J6/JFH1 with NS5A mutation K30A; test: BMS-790052 treatment of infected cultures; assay type: cell-based, hepatitis C virus
[6] = tested on: J6/JFH1 with NS5A mutation L27I; test: BMS-790052 treatment of infected cultures; assay type: cell-based, hepatitis C virus
genotype 1 replicons = conditions: cited from earlier work

For `COC(=O)N[C@H](C(=O)N1CCC[C@H]1c1nc(-c2ccc(-c3ccc(-c4c[nH]c([C@@H]5CCCN5C(=O)[C@@H](NC(=O)OC)C(C)C)n4)cc3)cc2)c[nH]1)C(C)C` [BMS-790052], the EC50 ([1]; Hepatitis C virus, genotype 2a, J6 (domain I), single experiment of three replicates, read-out: NS5A inhibitor, EC50 (nM), original) was 19 nM, the “resistance” value ([1]; exchange of JFH1 NS5A domain I to the corresponding J6 sequence) was “confer resistance” and the “Fold resistance compared to original” value (H77C(1a)-Y93H; H77C(1a) Y93H vs original H77C(1a)) was 4300 fold. The “fold more resistant than the respective original recombinant” value (H77C(1a)-Y93H; H77C(1a)-Y93H) was over 1000 fold, the EC50 (H77C(1a)-Y93H; Hepatitis C virus, H77C(1a), NS5A mutation Y93H, read-out: NS5A inhibitor, EC50 (nM), putative resistance mutant) was 110 nM and the EC50 (J6(2a)-Y93H; Hepatitis C virus, J6(2a), NS5A mutation Y93H, read-out: NS5A inhibitor, EC50 (nM), putative resistance mutant) was 2000 nM. The “Fold resistance compared to original” value (J6(2a)-Y93H; J6(2a) Y93H vs original J6(2a)) was 140 fold, the “fold more resistant than the respective original recombinant” value (J6(2a)-Y93H; J6(2a)-Y93H) was about 100 fold and the EC50 (SA13(5a)-T93H; Hepatitis C virus, SA13(5a), NS5A mutation T93H, read-out: NS5A inhibitor, EC50 (nM), putative resistance mutant) was 0.14 nM. The “Fold resistance compared to original” value (SA13(5a)-T93H; SA13(5a) T93H vs original SA13(5a)) was 4.2 fold, the “fold more resistant than the respective original recombinant” value (SA13(5a)-T93H; SA13(5a)-T93H) was under 5 fold and the EC50 (JFH1(2a)-Y93H; Hepatitis C virus, JFH1(2a), NS5A mutation Y93H, read-out: NS5A inhibitor, EC50 (nM), putative resistance mutant) was 140 nM. The “Fold resistance compared to original” value (JFH1(2a)-Y93H; JFH1(2a) Y93H vs original JFH1(2a)) was 1600 fold, the “fold more resistant than the respective original recombinant” value (JFH1(2a)-Y93H; JFH1(2a)-Y93H) was over 1000 fold and the “Fold resistance compared to original” value (ED43(4a)-Y93H; ED43(4a) Y93H vs original ED43(4a)) was 30 fold. For the same compound, the “fold more resistant than the respective original recombinant” value (ED43(4a)-Y93H; ED43(4a)-Y93H) was about 100 fold, the EC50 (ED43(4a)-Y93H; Hepatitis C virus, read-out: NS5A inhibitor, EC50 (nM), putative resistance mutant) was 0.53 nM and the EC50 ([2]; Hepatitis C virus, JFH1(2a), NS5A mutation L31M, single experiment of three replicates, read-out: NS5A inhibitor, EC50 (nM), putative resistance mutant) was 17 nM. The “Fold resistance compared to original” value ([2]; JFH1(2a) L31M vs original JFH1(2a)) was 190 fold, the “resistance” value ([2]; NS5A L31M in the J6/JFH1 background) was “confer resistance” and the EC50 (S52(3a)-Y93H; Hepatitis C virus, S52(3a), NS5A mutation Y93H, read-out: NS5A inhibitor, EC50 (nM), putative resistance mutant) was 1900 nM. The “Fold resistance compared to original” value (S52(3a)-Y93H; S52(3a) Y93H vs original S52(3a)) was 2100 fold, the “fold more resistant than the respective original recombinant” value (S52(3a)-Y93H; S52(3a)-Y93H) was over 1000 fold and the EC50 (J4(1b)-Y93H; Hepatitis C virus, J4(1b), NS5A mutation Y93H, read-out: NS5A inhibitor, EC50 (nM), putative resistance mutant) was 0.77 nM. For the same compound, the “Fold resistance compared to original” value (J4(1b)-Y93H; J4(1b) Y93H vs original J4(1b)) was 82 fold, the “fold more resistant than the respective original recombinant” value (J4(1b)-Y93H; J4(1b)-Y93H) was about 100 fold and the “Fold resistance compared to original” value (HK6a(6a)-T93H; HK6a(6a) T93H vs original HK6a(6a)) was 4.3 fold. For the same compound, the “fold more resistant than the respective original recombinant” value (HK6a(6a)-T93H; HK6a(6a)-T93H) was under 5 fold, the EC50 (HK6a(6a)-T93H; Hepatitis C virus, HK6a(6a), NS5A mutation T93H, read-out: NS5A inhibitor, EC50 (nM), putative resistance mutant) was 0.14 nM and the EC50 ([3]; Hepatitis C virus, JFH1(2a), NS5A mutation C92E, single experiment of three replicates, read-out: NS5A inhibitor, EC50 (nM), putative resistance mutant) was 14 nM. The “Fold resistance compared to original” value ([3]; JFH1(2a) C92E vs original JFH1(2a)) was 170 fold, the “resistance” value ([3]; NS5A C92E in the J6/JFH1 background) was “confer resistance” and the EC50 ([4]; Hepatitis C virus, JFH1(2a), NS5A mutation I37V, single experiment of three replicates, read-out: NS5A inhibitor, EC50 (nM), putative resistance mutant) was 0.17 nM. The “Fold resistance compared to original” value ([4]; JFH1(2a) I37V vs original JFH1(2a)) was 2.0 fold, the EC50 ([5]; Hepatitis C virus, JFH1(2a), NS5A mutation K30A, single experiment of three replicates, read-out: NS5A inhibitor, EC50 (nM), putative resistance mutant) was 0.034 nM and the “Fold resistance compared to original” value ([5]; JFH1(2a) K30A vs original JFH1(2a)) was 0.38 fold. For the same compound, the EC50 ([6]; Hepatitis C virus, JFH1(2a), NS5A mutation L27I, single experiment of three replicates, read-out: NS5A inhibitor, EC50 (nM), putative resistance mutant) was 0.14 nM, the “Fold resistance compared to original” value ([6]; JFH1(2a) L27I vs original JFH1(2a)) was 1.6 fold and the “fold resistance induced by change of NS5A residue 93” value (genotype 1 replicons) was over 10 fold.
